Consider 11 compounds from ChEMBL document CHEMBL1129675, “New directions in antibacterial research” (1996).

The species named for assay [1] is Mus musculus. As to the kind of experiment: Inhibitory activity against Streptococcus pneumoniae in mice. It counts as functional.
Assay [2] is filed under the species Mus musculus. Briefly: Inhibitory activity against Streptococcus pyogenes in mice. The class given is functional.
For assay [3], the species on record is Mus musculus. As to the kind of experiment: Inhibitory activity against Staphylococcus aureus in mice. It counts as functional.
Assay [4] has as its system Enterococcus faecalis. As to the kind of experiment: Inhibitory activity against VanA strain of E. faecalis; Range is 0.03-2 ug/mL.
Assay [5] concerns Enterococcus faecium. As to the kind of experiment: Inhibitory activity against VanA strain of E. faecium; Range is 0.03-2 ug/mL. The class given is functional.
The nature of assay [6]: Inhibitory activity against VanB enterococci; Range is 0.016-1 ug/mL. It counts as functional.
Assay [7] has as its system Streptococcus pneumoniae. Briefly: Inhibitory activity against Streptococcus pneumoniae. It counts as functional.
The test system of assay [8] is Staphylococcus aureus. As to the kind of experiment: Inhibitory activity against MRSA. It counts as functional.
Assay [9] deals with Streptococcus pyogenes. Briefly: Inhibitory activity against Streptococcus pyogenes. It counts as functional.
The nature of assay [10]: Antibacterial activity against Legionella; More active. It counts as functional.
The test system of assay [11] is Pasteurella multocida. As to the kind of experiment: Antibacterial activity against Pasteurella multocida; More active. The class given is functional, organism-based.
In assay [12] the test system is Streptococcus sp. As to the kind of experiment: Antibacterial activity against Streptococci; Retention of potent activity. The class given is functional, organism-based.
Assay [13] can be described thus: Antibacterial activity against […] species.; More active. The class given is functional.
The subject of assay [14] is Helicobacter pylori. Briefly: Antibacterial activity against Helicobacter pylori; Exhibits good activity. The class given is functional, organism-based.
Assay [15] concerns Chlamydia. As to the kind of experiment: Antibacterial activity against Chlamydia; More active. It counts as functional, organism-based.
Assay [16] relates to Haemophilus influenzae. Briefly: Antibacterial activity against Haemophilus influenzae; Active. The class given is functional, organism-based.
Assay [17] concerns Staphylococcus aureus. As to the kind of experiment: Antibacterial activity against MRSA was determined; Active. The class given is functional, organism-based.
Assay [18] in a line: Antibacterial activity against penicillin resistant pneumococci was determined; Active. It counts as functional.
In assay [19] the test system is Staphylococcus sp. As to the kind of experiment: Inhibitory activity against Staphylococci. The class given is functional.
In assay [20] the test system is Enterococcus faecalis. Briefly: Inhibitory activity against strain of Enterococcus faecalis. The class given is functional.
For assay [21], the system named is Streptococcus sp. Briefly: Inhibitory activity against all group A and B Streptococci. It counts as functional.
Assay [22] has as its system Enterococcus faecium. As to the kind of experiment: Inhibitory activity against strain of Enterococcus faecium. The class given is functional.
The test system of assay [23] is Staphylococcus aureus. As to the kind of experiment: Inhibitory activity against ciprofloxacin-resistant Staphylococcus aureus. It counts as functional.
Assay [24] deals with Streptococcus pneumoniae. Briefly: Inhibitory activity against penicillin-resistant Streptococcus pneumoniae. The class given is functional.
Assay [25] relates to Bacteroides fragilis. As to the kind of experiment: Inhibitory activity against strain of Bacteroides fragilis. The class given is functional.
In assay [26] the test system is Enterococcus faecium. As to the kind of experiment: Inhibitory activity against vancomycin-resistant Enterococcus faecium. The class given is functional.
Assay [27] has as its system Pseudomonas aeruginosa. As to the kind of experiment: Inhibitory activity against ciprofloxacin-resistant Pseudomonas aeruginosa. The class given is functional.
In assay [28] the test system is Staphylococcus aureus. As to the kind of experiment: Inhibitory activity against strain of Staphylococcus aureus. It counts as functional.
Assay [29] has as its system Serratia marcescens. As to the kind of experiment: In vitro inhibitory activity against Serratia marcescens. It counts as functional.
Assay [30] relates to Streptococcus sp. Briefly: In vitro inhibitory activity against Streptococci; Range is 0.06-0.25 ug/mL. The class given is functional.
In assay [31] the test system is Enterococcus faecalis. Briefly: In vitro inhibitory activity against Enterococcus faecalis. It counts as functional.
Assay [32] concerns Providencia sp. Briefly: In vitro inhibitory activity against Providencia species. The class given is functional.
The test system of assay [33] is Enterobacter. As to the kind of experiment: In vitro inhibitory activity against Enterobacteriaceae; Range is 0.016-0.5 ug/mL. It counts as functional.
For assay [34], the system named is Staphylococcus aureus. As to the kind of experiment: In vitro inhibitory activity against ciprofloxacin resistant MRSA. The class given is functional.
In assay [35] the test system is Citrobacter freundii. As to the kind of experiment: In vitro inhibitory activity against Citrobacter freundii. It counts as functional.
For assay [36], the system named is Staphylococcus aureus. Briefly: Inhibitory activity against Staphylococcus aureus. The class given is functional.
In assay [37] the test system is Staphylococcus epidermidis. Briefly: Inhibitory activity against Staphylococcus epidermidis. The class given is functional.
Assay [38] deals with Staphylococcus sp. Briefly: Inhibitory activity against ciprofloxacin resistant staphylococci; Range is 2-8 ug/mL. It counts as functional.
Assay [39] deals with Streptococcus pneumoniae. Briefly: Inhibitory activity against S. pneumoniae; Range is 0.12-0.25 ug/mL. The class given is functional.
In assay [40] the test system is Enterococcus faecalis. As to the kind of experiment: Inhibitory activity against strain of E. faecalis; Range is 0.25-2 ug/mL. The class given is functional.
The subject of assay [41] is Enterococcus. Briefly: Inhibitory activity against vancomycin-resistant enterococci. The class given is functional.
Assay [42] relates to Enterococcus faecium. As to the kind of experiment: Inhibitory activity against VanA strain of E. faecium; Range is 2-64 ug/mL. The class given is functional.
Assay [43] relates to Enterococcus faecalis. Briefly: Inhibitory activity against VanA strain of E. faecalis; Range is 2-64 ug/mL. It counts as functional.
Assay [44] has as its system Bacteria. Briefly: Inhibitory activity against vancomycin-sensitive Gram-positive bacteria. It counts as functional.
Assay [45] deals with Enterococcus faecium. Briefly: Inhibitory activity against VanA strain of E. faecium; Range is 64-2108 ug/mL. The class given is functional.
Assay [46] relates to Enterococcus faecium. Briefly: Inhibitory activity against strain of Enterococcus faecium resistant to both vancomycin and teicoplanin. The class given is functional.
In assay [47] the test system is Enterococcus faecalis. As to the kind of experiment: Inhibitory activity against strain of Enterococcus faecalis resistant to both vancomycin and teicoplanin.

Values after ≈ are worked out from the molar mass of the structure shown. Active and inactive are the calls of the source. No cut-off for these calls is given here. Bounds are passed on as bounds.

`CNC(=O)C[C@@H]1NC(=O)c2csc(n2)-c2ccc(-c3nc(C4=N[C@H](C(=O)N5CCC[C@H]5C(N)=O)CO4)cs3)nc2-c2csc(n2)-c2csc(n2)[C@H]([C@@H](O)c2ccccc2)NC(=O)CNC(=O)c2nc(sc2COC)[C@H](C(C)C)NC(=O)c2nc1sc2C`: the values for the ED50 in assay [1], in [2] and in assay [3] were 15.2 mg/kg, 9.1 mg/kg and 1.8 mg/kg, respectively.
With `CCCCCOc1ccc(CN[C@@]2(C)C[C@@H](O[C@H]3[C@H](Oc4c5cc6cc4Oc4ccc(cc4Cl)[C@@H](C[C@H]4C[C@](C)(N)[C@@H](O)[C@H](C)O4)[C@]4(C)NC(=O)[C@H](NC(=O)[C@@H]6NC(=O)[C@H](CC(N)=O)NC(=O)[C@H](NC(=O)[C@@H](CC(C)C)NC)[C@H](O)c6ccc(c(Cl)c6)O5)c5ccc(O)c(c5)-c5c(O)cc(O)cc5[C@@H](C(=O)O)NC4=O)O[C@H](CO)[C@@H](O)[C@@H]3O)O[C@@H](C)[C@@H]2O)cc1`, the MIC was 0.03 µg/mL (≈ 0.0168 µM) in assay [4]; 0.03 µg/mL (≈ 0.0168 µM) in [5]; 0.016 µg/mL (≈ 0.00898 µM) in [6]; under 0.008 µg/mL in assay [7]; at most 0.5 µg/mL in assay [8]; under 0.06 µg/mL in assay [9].
`CC[C@H]1OC(=O)[C@H](C)[C@@H](OC2CC(C)(O)C(O)C(C)O2)[C@H](C)[C@@H](OC2OC(C)CC(N(C)C)C2O)[C@](C)(OC)C[C@@H](C)C(=O)[C@H](C)[C@@H](O)[C@]1(C)O` (stereo partly drawn): the outcome in [10], in assay [11], in [13], in assay [15] and in assay [16] was Active. In addition, the Activity result in assay [12] and in [14] was “Exihibits good activity” in each case.
For the compound `C[C@@H](O)[C@H]1C(=O)N2C(C(=O)[O-])=C(c3ccc4c(c3)-c3ccc(C[n+]5ccn(C)c5)cc3C4=O)C[C@H]12`, the outcome in assay [17] and in assay [18] was Active.
For `N[C@@H]1CN(c2c(F)cc3c(=O)c(C(=O)O)cn(C4C[C@@H]4F)c3c2Cl)CC12CC2` (single isomer, unassigned) [SITAFLOXACIN ANHYDROUS], the MIC90 in assay [19] was at most 0.06 µg/mL; in [20] it was 1 µg/mL (≈ 2.44 µM); in assay [21] it was at most 0.125 µg/mL; in assay [22], 0.5 µg/mL (≈ 1.22 µM); in [8], 1 µg/mL (≈ 2.44 µM).
As to `Cc1c(N2CC[C@H](N)C2)c(F)cn2c(=O)c(C(=O)O)cc(C3CC3)c12` [ABT-719], the MIC90 in assay [23] was found to be 0.25 µg/mL (≈ 0.724 µM); in [24], 0.03 µg/mL (≈ 0.0869 µM); in assay [25], 0.06 µg/mL (≈ 0.174 µM); in assay [26], 0.5 µg/mL (≈ 1.45 µM); in assay [27] it was 2 µg/mL (≈ 5.79 µM); in assay [28], 0.015 µg/mL (≈ 0.0434 µM).
Consider `NC1CCN(c2c(F)cc3c(=O)c(C(=O)O)cn(C4CC4)c3c2Cl)C1` (stereo not drawn) [CLINAFLOXACIN], for which the MIC90 was 0.5 µg/mL (≈ 1.37 µM) in assay [29]; 0.06 µg/mL (≈ 0.164 µM) in [30]; 0.5 µg/mL (≈ 1.37 µM) in assay [31]; 0.5 µg/mL (≈ 1.37 µM) in assay [32]; 0.016 µg/mL (≈ 0.0437 µM) in [33]; 1 µg/mL (≈ 2.73 µM) in assay [34]. Also, the MIC90 in assay [35] turned out to be 0.5 µg/mL (≈ 1.37 µM).
For `CCN(CC)CCS(=O)(=O)[C@@H]1CCN2C(=O)c3coc(n3)CC(=O)C[C@H](O)/C=C(C)/C=C/CNC(=O)/C=C/[C@@H](C)[C@@H](C(C)C)OC(=O)[C@@H]12` [DALFOPRISTIN], the MIC90 worked out at 1 µg/mL (≈ 1.45 µM) in assay [36] and 0.5 µg/mL (≈ 0.724 µM) in [37].
As for `N[C@@H]1[C@H]2CN(c3nc4c(cc3F)c(=O)c(C(=O)O)cn4-c3ccc(F)cc3F)C[C@@H]12` [TROVAFLOXACIN], the results for the MIC in assay [38], in assay [39] and in [40] were 2 µg/mL (≈ 4.8 µM), 0.12 µg/mL (≈ 0.288 µM) and 0.25 µg/mL (≈ 0.6 µM), respectively.
`CN[C@H](CC(C)C)C(=O)N[C@H]1C(=O)N[C@@H](CC(N)=O)C(=O)N[C@H]2C(=O)N[C@H]3C(=O)N[C@](C)(C(=O)N[C@H](C(=O)O)c4cc(O)cc(O)c4-c4cc3ccc4O)[C@H](C[C@H]3C[C@](C)(N)[C@@H](O)[C@H](C)O3)c3ccc(c(Cl)c3)Oc3cc2cc(c3O[C@@H]2O[C@H](CO)[C@@H](O)[C@H](O)[C@H]2O[C@@H]2C[C@](C)(N)[C@@H](O)[C@H](C)O2)Oc2ccc(cc2Cl)[C@H]1O` [VANCOMYCIN DERIVATIVE (EPIVANCOMYCIN LINKED WITH ADDITIONAL AMINO SUGAR)]: the MIC is 500 µg/mL (≈ 312 µM) in assay [41], 2 µg/mL (≈ 1.25 µM) in [42], 2 µg/mL (≈ 1.25 µM) in assay [43] and 32 µg/mL (≈ 19.9 µM) in assay [44].
For the compound `CN[C@H](CC(C)C)C(=O)N[C@H]1C(=O)N[C@@H](CC(N)=O)C(=O)N[C@H]2C(=O)N[C@H]3C(=O)N[C@H](C(=O)N[C@H](C(=O)O)c4cc(O)cc(O)c4-c4cc3ccc4O)[C@H](O)c3ccc(c(Cl)c3)Oc3cc2cc(c3O[C@@H]2O[C@H](CO)[C@@H](O)[C@H](O)[C@H]2O[C@H]2C[C@](C)(N)[C@H](O)[C@H](C)O2)Oc2ccc(cc2Cl)[C@H]1O` [VANCOMYCIN], the figures for the MIC in [45], in [46] and in assay [47] were 64 µg/mL (≈ 44.2 µM), at least 128 µg/mL and at least 128 µg/mL, respectively.
